Measurements from patent EP2505659A1, “Methods for the identification of dioxygenase interacting molecules and for the purification of dioxygenase proteins” (CELLZOME AG, priority 2011, dated 2012).
Where a name gives a salt, the structure may show the parent alone. Read-outs that look alike come from different tables or passages of the source.

How the values were obtained:
C17ORF101 = target: T1, C17ORF101 (Homo sapiens, UniProt Q6PK18); test: Bead competition binding assay, immobilized compound A, K-562, HL-60 and Jurkat nuclear lysates; conditions: read-out: Fold change versus DMSO control, C17ORF101; 100 µM free compound A; HL-60 nuclear lysate
T1 construct: capturing and identification of dioxygenases from nuclear protein extracts; endogenous in cells
T1 sequence (Q6PK18 1-331 isoform Q6PK18-2): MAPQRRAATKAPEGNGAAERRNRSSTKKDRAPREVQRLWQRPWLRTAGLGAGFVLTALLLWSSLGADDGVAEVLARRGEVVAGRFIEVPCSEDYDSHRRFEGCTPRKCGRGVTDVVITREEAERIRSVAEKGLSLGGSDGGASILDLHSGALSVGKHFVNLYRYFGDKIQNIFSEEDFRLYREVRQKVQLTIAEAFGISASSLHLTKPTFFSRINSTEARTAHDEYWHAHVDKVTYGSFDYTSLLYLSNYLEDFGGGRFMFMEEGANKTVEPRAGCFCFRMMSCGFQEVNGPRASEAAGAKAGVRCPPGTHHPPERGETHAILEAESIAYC
Excerpt: (§1) The proteins bound to the immobilized compound were eluted with detergent-containing buffer and separated on a SDS-polyacryamide gel. […] Table 4: Compound treatment and TMT-labeling of cell samples
(§2) Jurkat cells (ATCC number TIB-152) were either obtained from an external supplier (CIL SA, Mons, Belgium) or grown in one litre Spinner flasks (Integra Biosciences, #182101) in suspension in RPMI 1640 medium (Invitrogen, #21875-034) supplemented with 10% Fetal Bovine Serum (Invitrogen, #10270-106) at a density between 0.2 x 10^6 and 1.0 x 10^6 cells/ml. Cells were harvested by centrifugation, washed once with 1 x PBS buffer (Invitrogen, #14190-094) and cell pellets were frozen in liquid nitrogen and subsequently stored at -80°C.
(§3) Source of HL-60 cells: HL-60 cell line (DSMZ, Braunschweig, Germany; DSMZ number ACC3). K562 cells were also purchased from DSMZ (Braunschweig, Germany).
(§4) Extracts of nuclei were prepared according to the Dignam protocol (Dignam et al., 1983. Nucleic Acids Res. 11 (5):1475-89).
(§5) The TMT reagents are a set of multiplexed, amine-specific, stable isotope reagents that can label peptides on amino groups in up to six different biological samples enabling simultaneous identification and quantitation of peptides. The TMT reagents were used according to instructions provided by the manufacturer. The samples were resuspended in 10 µl 50 mM TEAB solution, pH 8.5 and 10 µl acetonitril were added. The TMT reagent was dissolved in acetonitrile to a final concentration of 24 mM and 10 µl of reagent solution were added to the sample. The labeling reaction was performed at room temperature for one hour on a horizontal shaker and stopped by adding 5 µl of 100 mM TEAB and 100 mM glycine in water. The labeled samples were then combined, dried in a vacuum centrifuge and resuspended in 60% 200mM TEAB / 40% acetonitril.
(§6) Table 5: Peptide elution off the LC system
(§7) Search criteria varied depending on which mass spectrometer was used for the analysis.

P4HA1 = target: T2, P4HA1 (Homo sapiens, UniProt P13674); test: as above; conditions: read-out: Fold change versus DMSO control, P4HA1, 100 µM free compound A
T2 construct: endogenous in cells
Excerpt: as §1, §2, §3, §4, §5, §6, §7

T2 sequence (P13674 18-534): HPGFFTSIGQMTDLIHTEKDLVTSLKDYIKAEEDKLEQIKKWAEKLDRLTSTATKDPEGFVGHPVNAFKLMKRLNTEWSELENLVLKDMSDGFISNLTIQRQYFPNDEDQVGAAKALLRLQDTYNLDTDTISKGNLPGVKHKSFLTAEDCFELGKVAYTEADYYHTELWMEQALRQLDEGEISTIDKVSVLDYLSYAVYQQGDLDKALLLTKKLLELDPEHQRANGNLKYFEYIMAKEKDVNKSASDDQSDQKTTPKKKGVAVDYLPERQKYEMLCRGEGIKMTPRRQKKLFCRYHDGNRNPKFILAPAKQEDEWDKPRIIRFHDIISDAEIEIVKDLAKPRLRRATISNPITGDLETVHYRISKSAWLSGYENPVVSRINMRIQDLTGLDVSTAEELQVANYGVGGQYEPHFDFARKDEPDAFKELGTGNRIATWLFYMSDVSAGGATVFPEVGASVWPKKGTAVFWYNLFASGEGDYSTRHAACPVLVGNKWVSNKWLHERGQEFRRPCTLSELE
T2 sequence (P07237 18-508 partner): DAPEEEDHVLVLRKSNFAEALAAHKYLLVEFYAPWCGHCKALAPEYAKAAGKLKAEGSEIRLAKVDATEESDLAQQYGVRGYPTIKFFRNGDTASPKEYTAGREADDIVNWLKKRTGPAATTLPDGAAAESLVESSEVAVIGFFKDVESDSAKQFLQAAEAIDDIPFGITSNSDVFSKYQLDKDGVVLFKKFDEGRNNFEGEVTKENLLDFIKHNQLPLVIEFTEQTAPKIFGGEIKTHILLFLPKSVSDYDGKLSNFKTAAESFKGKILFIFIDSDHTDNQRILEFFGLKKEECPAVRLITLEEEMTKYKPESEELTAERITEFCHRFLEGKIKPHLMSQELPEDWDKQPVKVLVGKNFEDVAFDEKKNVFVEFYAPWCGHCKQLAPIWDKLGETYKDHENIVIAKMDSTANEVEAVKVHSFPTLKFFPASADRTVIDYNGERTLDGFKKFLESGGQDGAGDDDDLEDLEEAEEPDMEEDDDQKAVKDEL

## O=C(O)CNC(=O)C1C(=O)OC2(CCNCC2)OC1=O [compound A, 2-(2,4-dioxo-1,5-dioxa-9-azaspiro[5.5]undecane-3-carboxamido)acetic acid hydrochloride]
C17ORF101
  remaining binding at 100 µM: 67%
P4HA1; HL-60 nuclear lysate
  remaining binding at 100 µM: 25%
P4HA1; K-562 nuclear lysate
  remaining binding at 100 µM: 31%
